The KD is the free concentration of one partner at which half of the binding sites on the other are occupied at equilibrium, for simple one-to-one binding. A lower KD goes with higher affinity. As a reminder, the Kd is the equilibrium constant for the complex coming apart. A high value points to lower affinity. What is called ΔTm is the change in melting temperature against a reference sample.

The values that follow come from doi:10.1101/2025.10.10.681657 (bioRxiv, 2025).

Data set [1] concerns U4/U6 snRNA construct 92 nt (WT, No. 1) (RNA, junction) GGCCUUAUGCACGGGAAAUACGCAUAUCAGUGAGGAUUCGUCCGAGAUUGUGUUUUUGCUGGUGUAAAUCAGCAGUUCCCCUGCAUAAGGCU
The data set is described as follows: SPR steady state. As to conditions: 1x PBS, pH 7.4, 0.005% Tween 20, 5% DMSO.

Data set [2] concerns the target U4/U6 snRNA construct (92 nt). The data set is described as follows: SPR binding to U4/U6 snRNA construct (92 nt). Further details: species or system yeast. Particulars: 92 nt RNA, steady-state fit; >100 = signal appeared at 100 μM but failed to fit. How it is done:
SPR experiments were carried out using an SPR optical biosensor (BIAcore 3000, Cytiva, USA) based on reported methods with minor modifications.[35] To avoid RNA degradation during long-time injections, the whole microfluidic system was washed by priming 50% RNase Zap buffer and RNase-free water one day before the experiments. Then, by using running buffer (1xPBS, pH7.4, 0.005% Tween 20, 5% DMSO) at a flow rate of 5 μL/min, the binding assays were performed. In brief, a CM5 chip surface coated with carboxylated dextran was activated by standard EDC/NHS amine-coupling protocol and then conjugated with streptavidin (200 ng/mL in 10 mM sodium acetate buffer, pH 4.5) for 30 min, resulting in 4000~6000 response units (RUs) signal. After streptavidin conjugation, the surface was deactivated (1 M ethanolamine, pH 8.5) for 10 min and regenerated (10 mM NaOH) for 2 min to remove unbound SA. Then, the folded U4/U6 RNA with biotin-label at 5′ end was prepared (according to the above-mentioned method) at 5 μM and injected in flow-cell (Fc) 2 for 30 min while Fc1 was kept blank as a reference. Then, the system continued flowing the running buffer until the baseline was stable before future steps.
To detect binding between small molecules and U4/U6 snRNA, a 50 μL compound solution was applied to both Fc1 and Fc2 channels simultaneously at a higher flow rate (25 μL/min). The binding curve contains 120 s association and 200 s dissociation. A pulse of 10 mM NaOH injection was used for regeneration if needed. To measure the dissociation constant (KD), titrations of compound solutions with a serial dilution were applied. The KD value was then calculated by fitting the binding curves based on a steady-state model in BIAevaluation 4.0 software and plotted in GraphPad Prism 9.
On the technique in general: Surface plasmon resonance follows binding to a sensor surface in real time, without labels.

For data set [3], the system named is 79 nt RNA (lacking the K-turn). Briefly: SMM screening, 79 nt RNA. Format: binding, yeast. As to conditions: Z-score cutoff 3. How it is done: (§1) For high-throughput screening using SMM, the microarray slides were prepared based on previously reported methods using a robotic microarray printer (Arrayjet, UK).[34] Each slide contained ~7,000 compounds with duplicate spots of each sample. To perform screening, the SMM slide surface was first blocked with 500 nM yeast total tRNA (Invitrogen) in screening buffer (1xPBS, pH 7.4, 0.005% Tween 20) for 2 h prior to target RNA incubation. Then, the 5′-Cy5-labeled U4/U6 RNA construct was folded as above described, followed by buffer exchange to screening buffer. After annealing, the RNA was diluted to 50 nM in screening buffer and incubated with the microarray for another 2 h. After that, the glass slide was gently washed with PBST, PBS, and ddH2O three times in each buffer solution and dried in a centrifuge at 1,700 g for 2 min. Finally, the microarray was imaged with an InnoScan 1100 AL fluorescence scanner (Innopsys, France) at 635 nm and the hits were identified based on the quantified fluorescent intensity of each spot.

Data set [4] concerns U4U6 RNA for SHAPE-MaP (T7 transcript of Template) (RNA, junction) GGGCCUUCGGGCCAAGGCCUUAUGCACGGGAAAUACGCAUAUCAGUGAGGAUUCGUCCGAGAUUGUGUUUUUGCUGGUGUAAAUCAGCAGUUCCCCUGCAUAAGGCUUCGAUCCGGUUCGCCGGAUCCAAAUCGGGCUUCGGUCCGGUUC
The data set is described as follows: SHAPE-MaP (2A3). Particulars: KCl (3.3x folding buffer: 1023 mM); potassium phosphate pH 7.0, EDTA; 100 μM compound.

The test system of data set [5] is U4/U6 snRNA construct 32 nt (No. 4), Cy5 (RNA, hairpin) CGCAUAUCAGUGAGGAUUCGUCCGAGAUUGUG
The data set is described as follows: small molecule microarray. As to conditions: 1x PBS; pH 7.4, 0.005% Tween 20; 50 nM RNA; immobilised compound; Z-score cutoff 3.

Data set [6] concerns U4/U6 snRNA construct 92 nt (WT, No. 1), Cy5 (RNA, junction) GGCCUUAUGCACGGGAAAUACGCAUAUCAGUGAGGAUUCGUCCGAGAUUGUGUUUUUGCUGGUGUAAAUCAGCAGUUCCCCUGCAUAAGGCU
The data set is described as follows: small molecule microarray. As to conditions: 1x PBS; pH 7.4, 0.005% Tween 20; 50 nM RNA; immobilised compound; Z-score cutoff 3.

For data set [7], the system named is K-turn-containing RNAs (92 nt, 68 nt, and 32 nt). The data set is described as follows: SMM screening, K-turn-containing RNAs. Particulars: Z-score cutoff 3. Format: binding, yeast. How it is done: as §1
Data set [8] concerns U4/U6 snRNA construct 92 nt (WT, No. 1), unlabeled (RNA, junction) GGCCUUAUGCACGGGAAAUACGCAUAUCAGUGAGGAUUCGUCCGAGAUUGUGUUUUUGCUGGUGUAAAUCAGCAGUUCCCCUGCAUAAGGCU
The data set is described as follows: CD melting (260 nm). Particulars: PBS; 5 μM RNA, 100 μM compound, 5% DMSO.

The subject of data set [9] is U4/U6 snRNA construct 68 nt (No. 3), Cy5 (RNA, junction) GGGAAAUACGCAUAUCAGUGAGGAUUCGUCCGAGAUUGUGUUUUUGCUGGUGUAAAUCAGCAGUUCCC
The data set is described as follows: small molecule microarray. Particulars: 1x PBS; pH 7.4, 0.005% Tween 20; 50 nM RNA; immobilised compound; Z-score cutoff 3.

Data set [10] deals with U4/U6 snRNA construct 79 nt (No. 2, K-turn disrupted), Cy5 (RNA, junction) GGCCUUAUGCACGGGAAAUACGCAUAUCGUAAGAUUGUGUUUUUGCUGGUGUAAAUCAGCAGUUCCCCUGCAUAAGGCU
The data set is described as follows: small molecule microarray. As to conditions: 1x PBS; pH 7.4, 0.005% Tween 20; 50 nM RNA; immobilised compound; Z-score cutoff 3.

Data set [11] addresses T1, Snu13 (yeast (species ), UniProt P39990 1-126).
T1 sequence: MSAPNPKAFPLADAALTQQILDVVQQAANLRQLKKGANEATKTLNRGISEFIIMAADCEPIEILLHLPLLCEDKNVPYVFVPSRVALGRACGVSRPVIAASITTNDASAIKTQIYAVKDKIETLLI
The data set is described as follows: MST; no compound; 50 nM RNA; MST: 10 mM HEPES pH 7.4, 150 mM NaCl, 0.005% Tween 20, 50 nM RNA (protein buffer, mixed 1:1 with RNA); EMSA: 20 mM Tris-Cl pH 7.6, 150 mM NaCl, 0.1% Triton X-100, 2 mM DTT, room temperature, 8% native PAGE; RNA folded in 11.25 mM K-phosphate pH 7.0, 310 mM KCl, 5 mM EDTA. As to conditions: label: 5'-Cy5; folded single strand; three-way junction, U4 5' stem-loop with 5x2 internal loop (K-turn). (In EMSA bound probe runs differently from free probe, usually more slowly.)

In turn, `c1ccc2c(-c3nc(C4CC4)no3)nnc(NCCN3CCOCC3)c2c1` [Compound 19] gave a KD in data set [1] of 34.5 ± 11.3 µM. Moreover, the Kd in [2] came to 34.5 ± 11.3 µM.

Consider `c1cncc(CNc2nnc(-c3nc(C4CC4)no3)c3ccccc23)c1` [Compound 18], for which the Kd in [2] is > 100 µM.

For `Fc1ccc(-c2noc(-c3nnc(NCc4cccnc4)c4ccccc34)n2)cc1` [Compound 24], the dissociation constant KD in [1] (signal at 100 μM, not fitted) is > 100 µM. Further, the Kd in data set [2] is > 100 µM.

In turn, `CCc1nnc(-c2nnc(NCCCN3CCN(C)CC3)c3ccccc23)o1` [Compound 10] returned a KD in [1] of 51.4 ± 8.0 µM. The molecule also returned a Kd in data set [2] of 51.4 ± 8 µM.

On to `CCCCNc1nnc(-c2nc(C3CC3)no2)c2ccccc12` [Compound 16], for which, in data set [2], the equilibrium dissociation constant (Kd) is > 100 µM.

Consider `CCc1nnc(-c2nnc(NCc3cccnc3)c3ccccc23)o1` [Compound 8], for which, in data set [2], the Kd is > 100 µM.

`CN1CCN(CCNc2nnc(-c3nc(-c4ccc(F)cc4)no3)c3ccccc23)CC1` [Compound 25] yielded a dissociation constant (KD) in data set [1] of 13.9 ± 3.2 µM. In addition, the Kd in data set [2] stood at 13.9 ± 3.2 µM.

The molecule `CN(C)CCNc1nnc(-c2nc(C3CC3)no2)c2ccccc12` [Compound 14] gave a KD in data set [1] of 32.8 ± 11.0 µM. The molecule also yielded a Kd in data set [2] of 32.8 ± 11 µM.

Turning to `Cc1ccc(-n2ncc3c(NCCCN(C)C)ncnc32)cc1Cl` [Compound 1], the results for the SMM binding signal entry in [3] and in data set [7] were “negative results” and “positive binding signals”, respectively. Also, the binding entry in data set [4] is “yes”; in data set [5], “yes”; in [6], “yes”; in [9], “yes”; in data set [10], “no”. This molecule also gave a KD in data set [1] of 50.3 ± 1.3 µM. Binding in data set [2] was put at a Kd of 50.3 ± 1.3 µM. For the same molecule, the ΔTm in [8] is -1.5 ± 0.5 °C.

For `CCc1nnc(-c2nnc(NCCCOC)c3ccccc23)o1` [Compound 7], the dissociation constant (Kd) in [2] is > 100 µM.

`CCc1nnc(-c2nnc(NCCC(C)C)c3ccccc23)o1` [Compound 11]: the Kd in data set [2] was > 100 µM.

In the case of `CCc1nnc(-c2nnc(NCCN(CC)CC)c3ccccc23)o1` [Compound 4], the KD in data set [1] (signal at 100 μM, not fitted) is > 100 µM. Moreover, the dissociation constant Kd in [2] is > 100 µM.

As to `CCc1nnc(-c2nnc(NCCOC)c3ccccc23)o1` [Compound 6], the Kd in [2] was > 100 µM.

`CCN(CC)CCNc1nnc(-c2nc(C3CC3)no2)c2ccccc12` [Compound 15]: the KD in [1] was determined as 23.4 ± 6.0 µM. The molecule further registered a Kd in data set [2] of 23.4 ± 6 µM.

As for `CCc1nnc(-c2nnc(NCCCN(C)C)c3ccccc23)o1` [Compound 2], the SMM binding signal entry in [3] is “negative results”; in [7], “positive binding signals”. Moreover, the KD in [1] is 30.5 ± 8.4 µM. The binding entry in data set [5] was “yes”; in [6], “yes”; in [9], “yes”; in [10] it was “no”. Besides, the dissociation constant Kd in data set [2] was 30.5 ± 8.4 µM. Further, the ΔTm entry in data set [8] is “+3.3 ± 0.3 °C”.

As for `CCCCNc1nnc(-c2nnc(CC)o2)c2ccccc12` [Compound 5], the Kd in data set [2] was > 100 µM.

`CCc1nnc(-c2nnc(NCCN(C)C)c3ccccc23)o1` [Compound 3]: the KD in data set [1] is 29.2 ± 8.6 µM. This molecule showed an equilibrium dissociation constant (Kd) in data set [2] of 29.2 ± 8.6 µM.

Consider `CCN(CC)CCNc1nnc(-c2nnc(C3CC3)o2)c2ccccc12` [Compound 12], for which the KD in data set [1] is 24.2 ± 7.0 µM. Besides, the Kd in data set [2] came to 24.2 ± 7 µM.

In data set [1], `CN(C)CCCNc1nnc(-c2nc(-c3ccc(F)cc3)no2)c2ccccc12` [Compound 23] gave a KD of 11.9 ± 7.1 µM. Moreover, in data set [2], binding was characterised by a dissociation constant (Kd) of 11.9 ± 7.1 µM.

The molecule `CN1CCN(CCCNc2nnc(-c3nc(C4CC4)no3)c3ccccc23)CC1` [Compound 21] came in with a KD in data set [1] of 23.0 ± 5.3 µM. The equilibrium dissociation constant (Kd) in data set [2] is 23 ± 5.3 µM.

Take `COCCNc1nnc(-c2nnc(C3CC3)o2)c2ccccc12` [Compound 13]: in data set [2], the dissociation constant Kd is > 100 µM.

As for `COCCNc1nnc(-c2nc(C3CC3)no2)c2ccccc12` [Compound 17], the Kd in data set [2] was > 100 µM.

Turning to `CCc1nnc(-c2nnc(NCCCN3CCOCC3)c3ccccc23)o1` [Compound 9], the KD in data set [1] was determined as 61.3 ± 38.9 µM. The same molecule had a Kd in data set [2] of 61.3 ± 38.9 µM.

`c1ccc2c(-c3nc(C4CC4)no3)nnc(NCCCN3CCOCC3)c2c1` [Compound 20] had a KD in [1] of 42.1 ± 8.6 µM. Moreover, in data set [2], the dissociation constant Kd was 42.1 ± 8.6 µM.

B1: U4/U6 snRNA 92 nt construct (structured_RNA)
RNA: GGCCUUAUGCACGGGAAAUACGCAUAUCAGUGAGGAUUCGUCCGAGAUUGUGUUUUUGCUGGUGUAAAUCAGCAGUUCCCCUGCAUAAGGCU
With B1, the Kd in data set [11] came out at 0.062 ± 0.004 µM.
